Experimental data as given in patent US6380218B1, “Nicotinamide derivatives” (Pfizer Inc, priority 1997, dated 2002).

| SMILES | melting point |
| --- | --- |
| CC(C)(O)c1ccc(CNC(=O)c2cccnc2Oc2ccc3ncsc3c2)cc1 [Example 301, 2-(Benzothiazol-6-yloxy)-N-(4-(1-hydroxy-1-methyl-ethyl)-benzyl)-nicotinamide] | 195 to 197 °C |
| CC(C)(O)C1CCC(CNC(=O)c2cccnc2Oc2ccc(F)cc2)CC1 (centres unmarked) [Example 245, 2-(4-Fluoro-phenoxy)-N-[4-(1-hydroxy-1-methyl-ethyl)-cyclohexylmethyl]-nicotinamide] | 78 to 80 °C |
| CC(C)(O)c1ccc(CNC(=O)c2cccnc2Oc2ccc(F)c(C#N)c2)c(F)c1 [Example 99, 2-(3-Cyano-4-fluoro-phenoxy)-N-[2-fluoro4-(1-hydroxy-1-methyl-ethyl)-benzyl]-nicotinamide] | 157 to 159 °C |
| Cc1ccc(CNC(=O)c2cccnc2Oc2cncc(Cl)c2)cc1 [Example 48, 2-(5-Chloro-pyridin-3-yloxy)-N-(4-methyl-benzyl)-nicotinamide] | 119 to 121 °C |
| NS(=O)(=O)c1ccc(CNC(=O)c2cccnc2Oc2cccnc2)cc1 [Example 178, 2-(Pyridin-3-yloxy)-N-(4-sulfamoyl-benzyl)-nicotinamide] | 196 to 197 °C |
| O=C(NCC(O)c1ccccc1)c1cccnc1Oc1cccc(Cl)c1 (centres unmarked) [Example 133, 2-(3-Chloro-phenoxy)-N-(2-hydroxy-2-phenyl-ethyl)-nicotinamide] | 118 to 119 °C |
| C[C@@H](NC(=O)c1cccnc1Oc1ccc(F)cc1)c1cccs1 [Example 7, (R)(+)2-(4-Fluoro-phenoxy)-N-(1-thiophen-2-yl-ethyl)-nicotinamide] | 60 to 62 °C |
| N#Cc1ccc(Oc2ncccc2C(=O)NCc2ccccc2Cl)cc1 [Example 119, N-(2-Chloro-benzyl)-2-(4-cyano-phenoxy)-nicotinamide] | 112 to 114 °C |
| O=C(NCc1ccccc1Cl)c1cccnc1Oc1cccc(C(F)(F)F)c1 [Example 184, N-(2-Chloro-benzyl)-2-(3-trifluoromethyl-phenoxy)-nicotinamide] | 88 to 90 °C |
| CC[C@@H](C)NC(=O)c1cccnc1Oc1cccnc1 [Example 177, (R)-N-sec-Butyl-2-(pyridin-3-yloxy)-nicotinamide] | 55 to 56 °C |
| CC(=O)c1cccc(Oc2ncccc2C(=O)NCc2ccccc2Cl)c1 [Example 222, 2-(3-Acetyl-phenoxy)-N-(2-chloro-benzyl)-nicotinamide] | 140 to 142 °C |
| O=C(NCc1cc2ccccc2s1)c1cccnc1Oc1cncc(Cl)c1 [Example 56, N-Benzo[b]thiophen-2-ylmethyl-2-(5-chloro-pyridin-3-yloxy)-nicotinamide] | 160 to 162 °C |
| CC(=O)Nc1cccc(Oc2ncccc2C(=O)NCc2ccc(C(C)(C)O)cc2)c1 [Example 126, 2(3-Acetylamino-phenoxy)-N-[4-(1-hydroxy-1-methyl-ethyl)-benzyl]-nicotinamide] | 155 to 157 °C |
| O=C(NCc1ccc(O)cc1)c1cccnc1Oc1ccc(F)cc1 [Example 103, 2-(4-Fluoro-phenoxy)-N-(4-hydroxy-benzyl)-nicotinamide] | 185 to 187 °C |
| CC(C)(O)c1ccc(CC(=O)Nc2cccnc2Oc2cccc(C#N)c2)cc1 [Example 218, N-[2-(3-Cyano-phenoxy)-pyridin-3-yl]-2-[4-(1-hydroxy-1methyl-ethyl)-phenyl]-acetamide] | 97 to 99 °C |
| O=C(NCc1ccc(C(F)(F)F)s1)c1cccnc1Oc1cccnc1 [Example 30, 2-(Pyridin-3-yloxy)-N-(5-trifluoromethyl-thiophen-2-ylmethyl)-nicotinamide] | 122 to 124 °C |
| O=C(Nc1cccc(Oc2ncccc2C(=O)NCc2ccccc2Cl)c1)Nc1cccc2ccccc12 [Example 139, N-(2-Chloro-benzyl)-2-[3-(3-naphthalen-1-yl-ureido)-phenoxy]-nicotinamide] | 121 to 123 °C |
| CC(C)(O)c1ccc(CNC(=O)c2cccnc2Oc2ccc(F)cc2)c(Cl)c1 [Example 86, N-[2-Chloro-4-(1-hydroxy-1-methyl-ethyl)-benzyl]-2-(4-fluoro-phenoxy)-nicotinamide] | 102 to 104 °C |
| Cc1cc(CNC(=O)c2cccnc2Oc2ccc(F)cc2)cc(C)c1O [Example 78, 2-(4-Fluoro-phenoxy)-N-(4-hydroxy-3,5-dimethyl-benzyl)-nicotinamide] | 142 to 144 °C |
| CC(C)(O)[C@H]1CC[C@H](CNC(=O)c2cccnc2Oc2ccc(F)c(F)c2)CC1 [Example 240, trans-2-(3,4-Difluoro-phenoxy)-N-[4-(1-hydroxy-1-methyl-ethyl)-cyclohexylmethyl]-nicotinamide] | 80 to 82 °C |
| O=C1CCN(c2ccc(CNC(=O)c3cccnc3Oc3ccc(F)cc3)cc2)CC1 [Example 92, 2-(4-Fluoro-phenoxy)-N-[4-(4-oxo-piperidin-1-yl)-benzyl]-nicotinamide] | 138 to 139 °C |
| CC(=O)c1cc(Oc2ncccc2C(=O)NC[C@H]2CC[C@H](C(C)(C)O)CC2)ccc1Cl [Example 309, 2-(3-Acetyl-4-chloro-phenoxy)-N-(trans-4-(1-hydroxy-1-methyl-ethyl)-cyclohexylmethyl)-nicotinamide] | 106 to 108 °C |

| SMILES | melting point |
| --- | --- |
| O=C(NCc1ccc(F)s1)c1cccnc1Oc1cccnc1 [Example 32, N-(5-Fluoro-thiophen-2-ylmethyl)-2-(pyridin-3-yloxy)-nicotinamide] | 99 to 101 °C |
| O=C1Cc2cc(CNC(=O)c3cccnc3Oc3cccc([N+](=O)[O-])c3)ccc2N1 [Example 106, 2-(3-Nitro-phenoxy)-N-(2-oxo-2,3-dihydro-1H-indol-5-ylmethyl)-nicotinamide] | 190 to 192 °C |
| CC(=O)c1cccc(Oc2ncccc2C(=O)NCC2CCC(C(C)(C)O)CC2)c1 (centres unmarked) [Example 242, 2-(3-Acetyl-phenoxy)-N-[4-(1-hydroxy-1-methyl-ethyl)-cyclohexylmethyl]-nicotinamide] | 105 to 107 °C |
| CC(C)(O)c1ccc(CNC(=O)c2cccnc2Oc2cncc(Cl)c2)cc1 [Example 59, 2-(5-Chloro-pyridin-3-yloxy)-N-[4-(1-hydroxy-1-methyl-ethyl)-benzyl]-nicotinamide] | 78 to 80 °C |
| COc1cccc(Oc2ncccc2C(=O)NCc2ccc(S(N)(=O)=O)cc2)c1 [Example 200, 2-(3-Methoxy-phenoxy)-N-(4-sulfamoyl-benzyl)-nicotinamide] | 142 to 143 °C |
| CC(C)(O)c1ccc(CNC(=O)c2cccnc2Oc2ccc3ncoc3c2)cc1 [Example 302, 2-(Benzooxazol-6-yloxy)-N-(4-(1-hydroxy-1-methyl-ethyl)-benzyl)-nicotinamide] | 92 to 94 °C |
| O=C(NCc1ccc(Cl)s1)c1cccnc1Oc1cncc(Cl)c1 [Example 51, 2-(5-Chloro-pyridin-3-yloxy)-N-(5-chloro-thiophen-2-ylmethyl)-nicotinamide] | 125 to 127 °C |
| CC(NC(=O)c1cccnc1Oc1cccnc1)c1cccs1 (centres unmarked) [Example 45, 2-(Pyridin-3-yloxy)-N-(1-thiophen-2yl-ethyl)-nicotinamide] | 90 to 92 °C |
| CC(O)c1ccc(CNC(=O)c2cccnc2Oc2cccnc2)s1 (centres unmarked) [Example 160, N-[5-(1-Hydroxy-ethyl)-thiophen-2-ylmethyl]-2-(pyridin-3yloxy)-nicotinamide] | 92 to 94 °C |
| Cc1ccc(CNC(=O)c2cccnc2Oc2cncc(Cl)c2)s1 [Example 52, 2-(5-Chloro-pyridin-3-yloxy)-N-(5-methyl-thiophen-2-ylmethyl)-nicotinamide] | 81 to 83 °C |
| CCOC(=O)C1CCC(CNC(=O)c2cccnc2Oc2cccc(C(N)=O)c2)CC1 (centres unmarked) [Example 295, 4-({[2-(3-Carbamoyl-phenoxy)-pyridine-3-carbonyl]-amino}-methyl)-cyclohexanecarboxylic acid ethyl ester] | 160 to 162 °C |
| CC(NC(=O)c1cccnc1Oc1cncc(Cl)c1)c1ccc(Cl)s1 (centres unmarked) [Example 49, 2-(5-Chloro-pyridin-3-yloxy)-N-[1-(5-chloro-thiophen-2-yl)-ethyl]-nicotinamide] | 110 to 112 °C |
| O=C(Cc1ccccc1)c1cccnc1Oc1ccc(F)cc1 [Example 264, 1-[2-(4-Fluoro-phenoxy)-pyridin-3-yl]-2-phenyl-ethanone] | 81 to 82 °C |
| O=C1Cc2cc(CNC(=O)c3cccnc3Oc3ccc(F)cc3)ccc2N1 [Example 73, 2-(4-Fluoro-phenoxy)-N-(2-oxo-2,3-dihydro-1H-indol-5-ylmethyl)-nicotinamide] | 180 to 182 °C |
| O=C(NCc1cc(Cl)cs1)c1cccnc1Oc1ccc(F)cc1 [Example 62, N-(4-Chloro-thiophen-2-ylmethyl)-2-(4-fluoro-phenoxy)-nicotinamide] | 99 to 101 °C |
| Cc1ccc(C(C)NC(=O)c2cccnc2Oc2cccnc2)s1 (centres unmarked) [Example 17, N-[1-(5-Methyl-thiophen-2-yl)-ethyl]-2-(pyridin-3-yloxy)-nicotinamide] | 162 to 164 °C |
| O=C(CCc1c(F)cc(F)cc1F)c1cccnc1Oc1ccc(F)cc1 [Example 255, 1-[2-(4-Fluoro-phenoxy)-pyridin-3-yl]-3-(2,4,6-trifluoro-phenyl)-propan-1-one] | 84 to 85 °C |
| CC(C)(O)c1ccc(CNC(=O)c2cccnc2Oc2cccnc2)cc1Cl [Example 38, N-[3-Chloro-4-(1-hydroxy-1-methyl-ethyl)-benzyl]-2-(pyridin-3-yloxy)-nicotinamide] | 139 to 141 °C |
| O=C(NCc1cc2ccccc2s1)c1cccnc1Oc1ccc(F)cc1 [Example 65, N-Benzo[b]thiophen-2-ylmethyl-2-(4-fluoro-phenoxy)-nicotinamide] | 109 to 111 °C |
| O=C(Cc1ccccc1Cl)Nc1cccnc1Oc1ccc(F)cc1 [Example 136, 2-(2-Chloro-phenyl)-N-[2-(4-fluoro-phenoxy)-pyridin-3-yl]-acetamide] | 73 to 75 °C |
| O=C(NCC1CCC=CO1)c1cccnc1Oc1ccc(F)cc1 (centres unmarked) [Example 195, N-(3,4-Dihydro-2H-pyran-2-ylmethyl)-2-(4-fluoro-phenoxy)-nicotinamide] | 55 to 57 °C |
| CC[C@H](C)NC(=O)c1cccnc1Oc1cccnc1 [Example 176, (S)-N-sec-Butyl-2-(pyridin-3-yloxy)-nicotinamide] | 64 to 65 °C |
